Literature values in PMC6243681 (Chemical Science, 2018).

THRPPMWSPVWP
stability in serum / to serum proteases: low stability
